According to article PMC8230565, “Bisavenathramide Analogues as Nrf2 Inductors and Neuroprotectors in In Vitro Models of Oxidative Stress and Hyperphosphorylation” (Antioxidants, 2021):
“Also recorded” adds a separate entry of the source.

Legend:
Assay type in all cases: cell-based
HMOX1 = test: Western blot of Nrf2-dependent protein expression in AREc32 cells: HMOX1; conditions: 30 μM, 24 h
Protocol: (§1) AREc32 cells were collected from plates after 24 h of treatment with the selected compound at 30 µM. Then, they were lysed in ice-cold lysis buffer (1% Nonidet P-40, 10% glycerol, 137 mM NaCl, 20 mM Tris HCl pH 7.5, 1 μg/mL leupeptin, 1 mM phenylmethylsulfonyl fluoride, 20 mM NaF, 1 mM sodium pyrophosphate, and 1 mM Na3VO4). After this treatment, proteins (30 μg) were resolved by gel electrophoresis on sodium dodecyl sulfate–polyacrylamide (12%) and transferred to Immobilon-P membranes (MilliporeSigma, Burlington, MA, USA). The membranes were incubated with anti-GCLc (1:1000, Ab41463 (Abcam, Cambridge, MA, USA), anti−HMOX1 (1:1000, ab68477, Abcam), anti-NQO1 (1:1000, 11451-1-AP, Proteintech, Manchester, UK), or anti-β-Actin (1:100,000, A3854, Merck, Madrid, Spain). Peroxidase-conjugated secondary antibodies (1:10,000 and anti-rabbit: SC-2357, Santa Cruz Biotechnology, Dallas, TX, USA) were employed to detect the proteins by enhanced chemoluminescence. Band intensities corresponding to immunoblot detection of protein samples were quantitated with Fiji software.
(§2) Figure 4 Compound 3g effectively induces Nrf2 translocation and overexpression of Nrf2-ARE dependent genes in AREc32 cells. […] (B) Nrf2 nuclear localization analysis, measured as integrated intensity localized at the nucleus. HMOX1 (C) and NQO1 (D) expression in AREc32, measured by Western blot analysis. […]

NQO1 = test: Western blot of Nrf2-dependent protein expression in AREc32 cells: NQO1; conditions: 30 μM, 24 h
Protocol: as §1, §2

SH-SY5Y cells [1] = test: Total ROS production (H2DCFDA) in SH-SY5Y cells under R/O; conditions: 0.1, 1 and 10 µM; R/O 6 h
Protocol: ROS production was evaluated using the fluorescent dye H2DCFDA [20]. Briefly, after deacetylation inside the cell, the H2DCF derivative is able to react with oxygen-free radicals and is transformed into dichlorofluorescein, increasing its fluorescence intensity. SH-SH5Y cells were seeded in 96-well clear-bottom black plates 6 × 10^4 cells/well. After 24 h, cells were treated with compound 3i at the desired concentrations for 24 h. Treatments were then eliminated and the cells were loaded with H2DCFDA (10 μM) for 45 min. […] Fluorescence was evaluated in a fluorescence microplate reader (Fluostar optima; BMG Labtech, Ortenberg, Baden-Württemberg, Germany) at 485/520 excitation/emission wavelengths, respectively. […]
To further evaluate its mechanism of action, and considering the importance of exacerbated oxidative stress in neurodegenerative diseases, we evaluated its capacity to reduce free radical species production using the above-mentioned R/O toxic combination to generate ROS and measure the influence of 3i in the total ROS production by using the H2DCFDA dye, and also the specific superoxide production by using the selective dye dihydroetidium (DHE). […]

SH-SY5Y cells [2] = test: Superoxide production (DHE) in SH-SY5Y cells under R/O; conditions: 1 and 10 µM
Protocol: To evaluate superoxide production, we used the fluorescent dye dihydroethidium (DHE). SH-SY5Y cells were seeded in 96-well clear-bottom black plates (6 × 10^4 cells/well). After 24 h, cells were treated with compound 3i at the desired concentrations for 24 h. Thereafter, treatments were eliminated and cells were loaded with DHE (20 μM) for 45 min. […] Fluorescence was evaluated in a Nikon T1000 fluorescence microscope at 490/630 excitation/emission wavelengths, respectively. Images were quantitated using Fiji software, and data are expressed as the increase after 6 h exposure to ROS generator, normalized to basal conditions as 100% increase.
To further evaluate its mechanism of action, and considering the importance of exacerbated oxidative stress in neurodegenerative diseases, we evaluated its capacity to reduce free radical species production using the above-mentioned R/O toxic combination to generate ROS and measure the influence of 3i in the total ROS production by using the H2DCFDA dye, and also the specific superoxide production by using the selective dye dihydroetidium (DHE). […] This reduction might be related to a combination of direct scavenger effect and an increased expression of Nrf2-dependent antioxidant genes, such as HO-1.

[3] = tested on: AT8 (Ser202, Thr205 phospho-Tau); test: Phospho-tau (AT8) immunofluorescence in SH-SY5Y cells treated with okadaic acid; conditions: 10 µM, OA 20 nM, 8 h
Protocol: (§3) AREc32 or SH-SY5Y cells were seeded in 24 multiwell plates (40,000 or 100,000 cells per well, respectively) on poly-D-Lysine coated crystal slides. AREc32 cells were incubated for 1 h with the compounds under assay, and were then fixed by treatment with a 4% solution of paraformaldehyde in PBS for 15 min, followed by three washings with PBS in 5 min intervals. SH-SY5Y cells were treated with compounds during 24 h, and then co-incubated with medium (basal), okadaic acid (OA, 20 nM), or OA plus compound 3i (10 μM). Thereafter, cells were permeabilized by treatment with 0.5% Triton X-100 for 5 min, followed by three washings with PBS, and were incubated overnight with primary antibody anti-Nrf2 (ARE, 1:50, A-10, sc-365949, Santa Cruz Biotechnology, Dallas, TX, USA), anti-pTau AT8 (1:400, MN1020, Thermofisher, Madrid, Spain), and anti-HO-1 (1:400, Ab13243, Abcam, Madrid, Spain). After three washes with PBS, the cells were incubated with secondary antibodies (1:800, 1 h). In order to visualize the nuclei, the cells were counterstained during the second wash with 5 μg·mL^−1 of Hoechst 33342 (Invitrogen, Madrid, Spain). […]
(§4) Finally, we evaluated the capacity of compound 3i to reduce tau hyperphosphorylation in the SH-SY5Y cellular line induced by okadaic acid (OA). […]

HO-1 = HO-1 immunofluorescence in SH-SY5Y cells treated with okadaic acid; conditions: 10 µM, OA 20 nM, 8 h
Protocol: as §3, §4

SH-SY5Y cells [4] = test: Neuroprotection against rotenone/oligomycin A in SH-SY5Y cells (MTT); conditions: increasing concentrations; R/O 30/10 µM

SMILES	HMOX1 protein levels (HMOX1)	NQO1 protein levels (NQO1)	total ROS production (H2DCFDA) (SH-SY5Y cells [1])	superoxide production (DHE) (SH-SY5Y cells [2])	phospho-tau levels [3]	increase of HO-1 levels compared to basal levels (HO-1) [%]	neuroprotective effect against rotenone/oligomycin A by concentration (SH-SY5Y cells [4])
COC(=O)C1=C(C)N(CCc2ccccc2)C(=O)/C1=C\c1cc(OC)c(OC)c(OC)c1 [Compound 3g, Methyl (Z)-2-Methyl-5-oxo-1-phenethyl-4-(3,4,5-trimethoxybenzylidene)-4,5-dihydro-1H-pyrrole-3-carboxylate]	significantly increased	significantly increased					
COC(=O)C1=C(C)N(CCc2ccccc2)C(=O)/C1=C\c1ccc(O)c(O)c1 [Compound 3i, Methyl (Z)-4-(3,4-Dihydroxybenzylidene)-2-methyl-5-oxo-1-phenethyl-4,5-dihydro-1H-pyrrole-3-carboxylate]			reduce ROS production almost to basal levels at all concentrations tested	reduce superoxide production at both concentrations	significantly reduced phopho-tau levels to basal levels	46	statistically significant neuroprotective effect at 0.1 and 1 µM; also recorded: this activity was lost at 10 µM
